Test results taken from ChEMBL document CHEMBL1150056, “5-Epi-isospongiaquinone, a new sesquiterpene/quinone antibiotic from an Australian marine sponge, Spongia hispida” (1992).

Assays:
Micrococcus sp. = test: Antibacterial activity against Micrococcus sp. assessed per disk; assay type: functional
Staphylococcus aureus = test: Antibacterial activity against Staphylococcus aureus assessed per disk; assay type: functional

MIC (Micrococcus sp.) [µg] | MIC (Staphylococcus aureus) [µg] | SMILES
20 | 20 | COC1=CC(=O)C(O)=C(C[C@]2(C)[C@@H](C)CC[C@@]3(C)C(C)=CCC[C@@H]23)C1=O
50 | 50 | CCOC1=CC(=O)C(O)=C(C[C@]2(C)[C@@H](C)CC[C@@]3(C)C(C)=CCC[C@@H]23)C1=O
